For the assay, the target named is human Nav1.8 (Homo sapiens (Human), UniProt Q9Y5Y9). The assay is described as follows: E-VIPR optical membrane potential assay with electrical stimulation. As to conditions: HEK cells expressing human Nav1.8. Type of assay: cell-based. The source says: Assays for Detecting and Measuring NaV Inhibition Properties of Compounds E-VIPR Optical Membrane Potential Assay Method with Electrical Stimulation
Sodium channels are voltage-dependent proteins that can be activated by inducing membrane voltage changes by applying electric fields. The electrical stimulation instrument and methods of use are described in Ion Channel Assay Methods PCT/US01/21652, herein incorporated by reference and are referred to as E-VIPR. The instrument comprises a microtiter plate handler, an optical system for exciting the coumarin dye while simultaneously recording the coumarin and oxonol emissions, a waveform generator, a current- or voltage-controlled amplifier, and a device for inserting electrodes in well. Under integrated computer control, this instrument passes user-programmed electrical stimulus protocols to cells within the wells of the microtiter plate.
24 hours before the assay on E-VIPR, HEK cells expressing human Nav1.8 were seeded in 384-well poly-lysine coated plates at 15,000-20,000 cells per well. HEK cells were grown in media (exact composition is specific to each cell type and NaV subtype) supplemented with 10% FBS (Fetal Bovine Serum, qualified; GibcoBRL #16140-071) and 1% Pen-Strep (Penicillin-Streptomycin; GibcoBRL #15140-122). Cells were grown in vented cap flasks, in 90% humidity and 5% CO2.
1) Pre-spotted compounds (in neat DMSO) into compound plates. Vehicle control (neat DMSO), the positive control (20 mM DMSO stock tetracaine, 125 μM final in assay) and test compounds were added to each well at 160× desired final concentration in neat DMSO. Final compound plate volume was 80 μL (80-fold intermediate dilution from 1 μL DMSO spot; 160-fold final dilution after transfer to cell plate). Final DMSO concentration for all wells in assay was 0.625%.
2) Prepared Hexyl Dye Solution.
3) Prepared cell plates. On the day of the assay, medium was aspirated and cells were washed three times with 100 μL of Bath1 Solution, maintaining 25 μL residual volume in each well.
4) Dispensed 25 μL per well of Hexyl Dye Solution into cell plates. Incubated for 20-35 minutes at room temp or ambient conditions.
5) Dispensed 80 μL per well of Bath1 into compound plates. Acid Yellow-17 (1 mM) was added and Potassium Chloride was altered from 4.5 to 20 mM depending on the NaV subtype and assay sensitivity.
6) Washed cell plates three times with 100 μL per well of Bath1, leaving 25 μL of residual volume. Then transferred 25 uL per well from Compound Plates to Cell Plates. Incubated for 20-35 minutes at room temp/ambient condition.
7) Read Plate on E-VIPR. Used the current-controlled amplifier to deliver stimulation wave pulses for 10 seconds and a scan rate of 200 Hz. A pre-stimulus recording was performed for 0.5 seconds to obtain the un-stimulated intensities baseline. The stimulatory waveform was followed by 0.5 seconds of post-stimulation recording to examine the relaxation to the resting state.
Data was analyzed and reported as normalized ratios of emission intensities measured in the 460 nm and 580 nm channels. The response as a function of time was reported as the ratios obtained using the following formula: […]
The data was further reduced by calculating the initial (Ri) and final (Rf) ratios. These were the average ratio values during part or all of the pre-stimulation period, and during sample points during the stimulation period. The response to the stimulus R=Rf/Ri was then calculated and reported as a function of time.
Control responses were obtained by performing assays in the presence of a compound with the desired properties (positive control), such as tetracaine, and in the absence of pharmacological agents (negative control). Responses to the negative (N) and positive (P) controls were calculated as above. The compound antagonist activity A is defined as:
[formula] where R is the ratio response of the test compound

IC50 data for 31 compounds are collected here from US9139529B2, “Substituted quinoxalines as sodium channel modulators” (VERTEX PHARMACEUTICALS INCORPORATED, priority 2013, dated 2015).

Structures are written as SMILES.

Sequence of human Nav1.8 (Q9Y5Y9 whole entry): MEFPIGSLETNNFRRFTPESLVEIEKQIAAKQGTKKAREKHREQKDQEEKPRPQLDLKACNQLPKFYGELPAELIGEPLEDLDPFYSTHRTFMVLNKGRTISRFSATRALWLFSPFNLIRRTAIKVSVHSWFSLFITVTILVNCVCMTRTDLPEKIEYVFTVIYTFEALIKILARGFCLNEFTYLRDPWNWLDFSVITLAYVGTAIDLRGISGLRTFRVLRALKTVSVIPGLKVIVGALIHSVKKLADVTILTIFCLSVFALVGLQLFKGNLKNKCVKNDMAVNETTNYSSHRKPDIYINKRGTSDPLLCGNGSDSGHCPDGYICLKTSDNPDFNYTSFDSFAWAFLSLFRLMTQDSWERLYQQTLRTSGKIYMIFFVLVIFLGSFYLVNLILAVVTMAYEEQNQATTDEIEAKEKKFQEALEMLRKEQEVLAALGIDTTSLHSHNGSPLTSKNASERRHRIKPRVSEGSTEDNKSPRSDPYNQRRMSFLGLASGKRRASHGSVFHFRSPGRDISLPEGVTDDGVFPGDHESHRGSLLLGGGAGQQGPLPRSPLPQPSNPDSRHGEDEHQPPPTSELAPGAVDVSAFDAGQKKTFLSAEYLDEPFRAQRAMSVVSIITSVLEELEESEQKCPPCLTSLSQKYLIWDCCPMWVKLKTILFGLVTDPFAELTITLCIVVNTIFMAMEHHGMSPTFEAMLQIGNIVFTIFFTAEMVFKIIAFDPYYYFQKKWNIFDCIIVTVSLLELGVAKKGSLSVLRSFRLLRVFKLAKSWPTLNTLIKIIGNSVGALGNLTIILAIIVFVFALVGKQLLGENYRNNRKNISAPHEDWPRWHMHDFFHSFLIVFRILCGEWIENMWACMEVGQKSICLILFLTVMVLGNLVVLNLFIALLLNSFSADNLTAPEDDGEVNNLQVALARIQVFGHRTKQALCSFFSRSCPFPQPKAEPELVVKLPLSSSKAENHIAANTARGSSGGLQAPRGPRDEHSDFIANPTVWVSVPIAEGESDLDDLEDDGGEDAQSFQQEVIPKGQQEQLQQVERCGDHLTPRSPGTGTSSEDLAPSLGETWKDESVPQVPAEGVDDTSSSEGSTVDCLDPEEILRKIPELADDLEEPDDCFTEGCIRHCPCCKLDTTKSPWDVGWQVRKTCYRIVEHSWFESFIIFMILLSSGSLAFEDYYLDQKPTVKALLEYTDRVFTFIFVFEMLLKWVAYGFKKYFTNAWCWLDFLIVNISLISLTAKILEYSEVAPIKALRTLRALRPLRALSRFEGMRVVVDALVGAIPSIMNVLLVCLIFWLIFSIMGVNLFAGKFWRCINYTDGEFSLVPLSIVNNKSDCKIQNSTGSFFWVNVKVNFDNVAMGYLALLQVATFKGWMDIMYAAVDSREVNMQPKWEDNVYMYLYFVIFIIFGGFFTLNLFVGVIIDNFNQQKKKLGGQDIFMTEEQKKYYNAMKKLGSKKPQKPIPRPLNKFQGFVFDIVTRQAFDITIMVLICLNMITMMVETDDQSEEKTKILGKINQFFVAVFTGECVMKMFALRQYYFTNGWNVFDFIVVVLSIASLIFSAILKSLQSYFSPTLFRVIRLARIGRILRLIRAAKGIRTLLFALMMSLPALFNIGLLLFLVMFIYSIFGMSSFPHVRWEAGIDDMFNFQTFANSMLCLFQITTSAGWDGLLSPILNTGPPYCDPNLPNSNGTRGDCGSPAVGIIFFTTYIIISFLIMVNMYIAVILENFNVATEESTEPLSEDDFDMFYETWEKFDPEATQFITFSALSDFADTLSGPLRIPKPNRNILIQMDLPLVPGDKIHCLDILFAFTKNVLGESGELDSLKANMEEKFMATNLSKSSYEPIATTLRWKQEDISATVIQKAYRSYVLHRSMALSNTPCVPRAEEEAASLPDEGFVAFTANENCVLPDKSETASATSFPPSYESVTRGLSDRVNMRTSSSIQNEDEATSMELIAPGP

Consider `NS(=O)(=O)c1cccc(NC(=O)c2cc3ccccc3nc2Oc2ccc(F)cc2Cl)c1` [Compound 66, 2-(2-chloro-4-fluorophenoxy)-N-(3-sulfamoylphenyl)quinoline-3-carboxamide], for which the IC50 worked out at 2 nM. For `COc1cc(F)ccc1Oc1nc2ccccc2nc1C(=O)Nc1ccc2cn[nH]c2c1` [Compound 47, 3-(4-fluoro-2-methoxyphenoxy)-N-(1H-indazol-6-yl)quinoxaline-2-carboxamide] the value was 130 nM. Take `COc1ccc(Oc2nc3ccccc3nc2C(=O)Nc2cccc(S(N)(=O)=O)c2)c(OC)c1` [Compound 8, 3-(2,4-dimethoxyphenoxy)-N-(3-sulfamoylphenyl)quinoxaline-2-carboxamide]: the midpoint of inhibition, the IC50, lay at 6 nM. In the case of `O=C(O)c1ccc(NC(=O)c2nc3ccccc3nc2Oc2ccc(OC(F)(F)F)cc2)cc1` [Compound 17, 4-(3-(4-(trifluoromethoxy)phenoxy)quinoxaline-2-carboxamido)benzoic acid] it was 44 nM; in that of `COc1cc(F)ccc1Oc1nc2ccccc2nc1C(=O)Nc1ccc2[nH]ncc2c1` [Compound 48, 3-(4-fluoro-2-methoxyphenoxy)-N-(1H-indazol-5-yl)quinoxaline-2-carboxamide], 86 nM; in that of `CNS(=O)(=O)c1cccc(NC(=O)c2nc3ccccc3nc2Oc2ccc(F)cc2OC)c1` [Compound 16, 3-(4-fluoro-2-methoxyphenoxy)-N-(3-(N-methylsulfamoyl)phenyl)quinoxaline-2-carboxamide], 22 nM. For `COc1cc(F)ccc1Oc1nc2ccccc2nc1C(=O)Nc1cccnc1` [Compound 54, 3-(4-fluoro-2-methoxyphenoxy)-N-(pyridin-3-yl)quinoxaline-2-carboxamide] the value was 80 nM. In the case of `NS(=O)(=O)c1cccc(NC(=O)c2nc3ccccc3nc2Oc2ccccc2OC(F)F)c1` [Compound 10, 3-(2-(difluoromethoxy)phenoxy)-N-(3-sulfamoylphenyl)quinoxaline-2-carboxamide] it was 36 nM. For the compound `COc1ccc(Oc2nc3ccccc3nc2C(=O)Nc2ccc(C(=O)O)nc2)c(F)c1` [Compound 21, 5-(3-(2-fluoro-4-methoxyphenoxy)quinoxaline-2-carboxamido)picolinic acid], inhibition was half-maximal at 235 nM (IC50). Against the preceding compound, the IC50 is about 6.5-fold higher. For `COc1cc(F)ccc1Oc1nc2ccccc2nc1C(=O)Nc1ccc2[nH]c(=O)[nH]c2c1` [Compound 57, 3-(4-fluoro-2-methoxyphenoxy)-N-(2-oxo-2,3-dihydro-1H-benzo[d]imidazol-5-yl)quinoxaline-2-carboxamide], the IC50 was found to be 19 nM. For `NS(=O)(=O)c1cccc(NC(=O)c2nc3ccccc3nc2Oc2ccc(F)cc2)c1` [Compound 1, 3-(4-fluorophenoxy)-N-(3-sulfamoylphenyl)quinoxaline-2-carboxamide] the value was 27 nM; for `COc1cc(F)ccc1Oc1nc2ccccc2nc1C(=O)Nc1cc(C#N)ccn1` [Compound 50, N-(4-cyanopyridin-2-yl)-3-(4-fluoro-2-methoxyphenoxy)quinoxaline-2-carboxamide], 1250 nM; for `COc1cc(F)ccc1Oc1nc2ccccc2nc1C(=O)Nc1ccc(C#N)cn1` [Compound 52, N-(5-cyanopyridin-2-yl)-3-(4-fluoro-2-methoxyphenoxy)quinoxaline-2-carboxamide], 2400 nM. For `O=C(O)c1ccc(NC(=O)c2nc3ccccc3nc2Oc2ccc(F)cc2)cn1` [Compound 18, 5-(3-(4-fluorophenoxy)quinoxaline-2-carboxamido)picolinic acid] the value was 250 nM; for `COc1cc(F)ccc1Oc1nc2ccccc2nc1C(=O)Nc1ccc(C#N)cc1` [Compound 55, N-(4-cyanophenyl)-3-(4-fluoro-2-methoxyphenoxy)quinoxaline-2-carboxamide], 46 nM; for `NS(=O)(=O)c1cccc(NC(=O)c2cc3ccccc3nc2Oc2ccc(OC(F)(F)F)cc2)c1` [Compound 68, N-(3-sulfamoylphenyl)-2-(4-(trifluoromethoxy)phenoxy)quinoline-3-carboxamide], 13 nM. For `O=C(O)c1ccc(NC(=O)c2nc3ccccc3nc2Oc2ccccc2)cn1` [Compound 20, 5-(3-phenoxyquinoxaline-2-carboxamido)picolinic acid] the value was 1080 nM; for `Cc1cc(F)ccc1Oc1nc2ccccc2nc1C(=O)Nc1cccc(S(N)(=O)=O)c1` [Compound 14, 3-(4-fluoro-2-methylphenoxy)-N-(3-sulfamoylphenyl)quinoxaline-2-carboxamide], 7 nM. With `NS(=O)(=O)c1cccc(NC(=O)c2nc3ccccc3nc2Oc2ccc(OCC(F)(F)F)cc2)c1` [Compound 15, N-(3-sulfamoylphenyl)-3-(4-(2,2,2-trifluoroethoxy)phenoxy)quinoxaline-2-carboxamide], the IC50 turned out to be 66 nM. For `COc1cc(F)ccc1Oc1nc2ccccc2nc1C(=O)Nc1cccc(S(N)(=O)=O)c1` [Compound 2, 3-(4-fluoro-2-methoxyphenoxy)-N-(3-sulfamoylphenyl)quinoxaline-2-carboxamide] the value was 6 nM; for `COc1cc(F)ccc1Oc1nc2ccccc2nc1C(=O)Nc1cn[nH]c1` [Compound 43, 3-(4-fluoro-2-methoxyphenoxy)-N-(1H-pyrazol-4-yl)quinoxaline-2-carboxamide], 220 nM; for `COc1ccc(Oc2nc3ccccc3cc2C(=O)Nc2cccc(S(N)(=O)=O)c2)c(OC)c1` [Compound 72, 2-(2,4-dimethoxyphenoxy)-N-(3-sulfamoylphenyl)quinoline-3-carboxamide], 26 nM. The compound `O=C(O)c1ccc(NC(=O)c2nc3ccccc3nc2Oc2ccc(OCC(F)(F)F)cc2)cn1` [Compound 22, 5-(3-(4-(2,2,2-trifluoroethoxy)phenoxy)quinoxaline-2-carboxamido)picolinic acid] registered an IC50 of 180 nM. For the compound `Cc1cc(Cl)ccc1Oc1nc2ccccc2nc1C(=O)Nc1ccc(C(=O)O)nc1` [Compound 25, 5-(3-(4-chloro-2-methylphenoxy)quinoxaline-2-carboxamido)picolinic acid], the IC50 was 56 nM. In the case of `COc1cc(F)ccc1Oc1nc2ccccc2nc1C(=O)Nc1cccc(S(C)(=O)=O)c1` [Compound 46, 3-(4-fluoro-2-methoxyphenoxy)-N-(3-(methylsulfonyl)phenyl)quinoxaline-2-carboxamide] it was 1 nM. Compound `COc1ccc(Oc2nc3ccccc3nc2C(=O)Nc2cccc(S(N)(=O)=O)c2)cc1F` [Compound 7, 3-(3-fluoro-4-methoxyphenoxy)-N-(3-sulfamoylphenyl)quinoxaline-2-carboxamide] had an IC50 of 42 nM. For `Cc1cc(F)ccc1Oc1nc2ccccc2cc1C(=O)Nc1cccc(S(N)(=O)=O)c1` [Compound 63, 2-(4-fluoro-2-methylphenoxy)-N-(3-sulfamoylphenyl)quinoline-3-carboxamide] the value was 8 nM; for `NS(=O)(=O)c1cccc(NC(=O)c2nc3ccccc3nc2Oc2ccc(F)cc2F)c1` [Compound 5, 3-(2,4-difluorophenoxy)-N-(3-sulfamoylphenyl)quinoxaline-2-carboxamide], 13 nM; for `NS(=O)(=O)c1cccc(NC(=O)c2cc3ccccc3nc2Oc2ccc(F)cc2F)c1` [Compound 65, 2-(2,4-difluorophenoxy)-N-(3-sulfamoylphenyl)quinoline-3-carboxamide], 11 nM. With `COc1cc(F)ccc1Oc1nc2ccccc2nc1C(=O)Nc1ccc2nc[nH]c2c1` [Compound 49, N-(1H-benzo[d]imidazol-6-yl)-3-(4-fluoro-2-methoxyphenoxy)quinoxaline-2-carboxamide], the IC50 is 585 nM. `COc1cc(F)ccc1Oc1nc2ccccc2cc1C(=O)Nc1cccc(S(N)(=O)=O)c1` [Compound 61, 2-(4-fluoro-2-methoxyphenoxy)-N-(3-sulfamoylphenyl)quinoline-3-carboxamide] yielded an IC50 of 11 nM.
